Laboratory results published in US20090299044A1 (priority 2006, published 2009).
Bridge positions count the residues as written; N and C are the ends. Square brackets hold non-standard residues; d marks the D form. Peptide text beside a SMILES is read from it. 1Nal = N[C@@H](Cc1cccc2ccccc12)C(=O)O

Key:
human Kv1.3 (CHO) = target: T1, human Kv1.3 (CHO) (Homo sapiens, UniProt P22001); experiment: cell-based
T1 construct: expressed in transfected cells; host or cells: CHO

human Kv1.1 (HEK293) = target: T2, human Kv1.1 (HEK293) (Homo sapiens, UniProt Q09470); experiment: cell-based
T2 construct: expressed in transfected cells; host or cells: HEK293
T2 sequence (Q09470 whole entry): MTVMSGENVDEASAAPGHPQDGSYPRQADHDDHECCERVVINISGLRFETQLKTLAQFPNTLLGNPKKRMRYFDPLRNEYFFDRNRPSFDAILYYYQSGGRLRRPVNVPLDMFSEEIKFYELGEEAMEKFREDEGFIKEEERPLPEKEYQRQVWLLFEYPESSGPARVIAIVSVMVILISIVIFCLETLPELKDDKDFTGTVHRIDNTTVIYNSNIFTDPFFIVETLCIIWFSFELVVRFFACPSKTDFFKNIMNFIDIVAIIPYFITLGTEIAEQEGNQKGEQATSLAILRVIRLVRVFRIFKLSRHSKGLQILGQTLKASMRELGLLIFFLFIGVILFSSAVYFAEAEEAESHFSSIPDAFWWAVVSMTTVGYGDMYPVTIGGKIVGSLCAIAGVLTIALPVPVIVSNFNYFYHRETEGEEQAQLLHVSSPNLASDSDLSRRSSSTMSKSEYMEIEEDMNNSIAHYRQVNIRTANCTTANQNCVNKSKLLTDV

T1 sequence (P22001 whole entry): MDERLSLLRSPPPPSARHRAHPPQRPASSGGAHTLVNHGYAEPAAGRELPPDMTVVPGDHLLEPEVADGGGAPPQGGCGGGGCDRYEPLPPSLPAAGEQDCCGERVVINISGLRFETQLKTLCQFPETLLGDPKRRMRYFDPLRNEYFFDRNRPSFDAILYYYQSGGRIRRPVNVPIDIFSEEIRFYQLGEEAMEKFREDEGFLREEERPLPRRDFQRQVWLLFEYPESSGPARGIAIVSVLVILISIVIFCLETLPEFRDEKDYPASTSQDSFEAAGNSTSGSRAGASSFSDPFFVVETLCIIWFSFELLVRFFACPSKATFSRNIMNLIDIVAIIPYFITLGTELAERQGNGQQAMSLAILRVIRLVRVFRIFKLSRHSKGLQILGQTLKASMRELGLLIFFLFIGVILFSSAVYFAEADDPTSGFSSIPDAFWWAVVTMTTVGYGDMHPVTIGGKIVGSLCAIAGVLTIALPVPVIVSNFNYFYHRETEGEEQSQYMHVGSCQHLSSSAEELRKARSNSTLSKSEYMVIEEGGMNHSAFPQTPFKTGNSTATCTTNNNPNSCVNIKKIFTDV

Row | Compound | IC50 (human Kv1.3 (CHO)) [pM] | IC50 (human Kv1.1 (HEK293)) [pM]
1 | CC[C@H](C)[C@@H]1NC(=O)[C@H](CCCCN)NC(=O)[C@@H](NC(=O)[C@H](CCCCN)NC(=O)[C@@H](NC(=O)[C@H](CC(N)=O)NC(=O)[C@@H](NC(=O)[C@@H](NC(=O)[C@@H](NC(=O)CN)C(C)C)[C@@H](C)CC)[C@@H](C)CC)C(C)C)CSSC[C@@H]2NC(=O)[C@H](CCCCN)NC(=O)CNC(=O)[C@H](Cc3ccccc3)NC(=O)[C@H](CCCNC(=N)N)NC(=O)[C@H](CCSC)NC(=O)CNC(=O)[C@H](C)NC(=O)[C@H](CCCCN)NC(=O)[C@H](CCCCN)NC(=O)[C@@H]3CSSC[C@@H](C(=O)N[C@H](C(=O)N4CCC[C@H]4C(=O)N[C@@H](CCCCN)C(=O)O)[C@@H](C)O)NC(=O)[C@H](Cc4c[nH]cn4)NC(=O)[C@H](CSSC[C@H](NC(=O)[C@H](CCC(N)=O)NC(=O)[C@H](CCCNC(=N)N)NC(=O)[C@H](CO)NC1=O)C(=O)N[C@@H](CC(C)C)C(=O)N[C@@H](C)C(=O)N1CCC[C@H]1C(=O)N3)NC(=O)[C@H](CCCCN)NC(=O)CNC(=O)[C@H](CC(N)=O)NC(=O)[C@H](CCSC)NC2=O [E16A] (H-GVIINVKCKISRQCLAPCKKAGMRFGKCMNGKCHCTPK-OH; disulfide 8-28, 14-33, 18-35) | 21.6 | 6.87
2 | CC[C@H](C)[C@@H]1NC(=O)[C@H](CCCCN)NC(=O)[C@@H](NC(=O)[C@H](CCCCN)NC(=O)[C@@H](NC(=O)[C@H](CC(N)=O)NC(=O)[C@@H](NC(=O)[C@@H](NC(=O)[C@@H](NC(=O)CN)C(C)C)[C@@H](C)CC)[C@@H](C)CC)C(C)C)CSSC[C@@H]2NC(=O)[C@H](CCCCN)NC(=O)CNC(=O)[C@H](Cc3cccc4ccccc34)NC(=O)[C@H](CCCNC(=N)N)NC(=O)[C@H](CCSC)NC(=O)CNC(=O)[C@H](C)NC(=O)[C@H](CCCCN)NC(=O)[C@H](CCCCN)NC(=O)[C@@H]3CSSC[C@@H](C(=O)N[C@H](C(=O)N4CCC[C@H]4C(=O)N[C@@H](CCCCN)C(=O)O)[C@@H](C)O)NC(=O)[C@H](Cc4c[nH]cn4)NC(=O)[C@H](CSSC[C@H](NC(=O)[C@H](CCC(N)=O)NC(=O)[C@H](CCCNC(=N)N)NC(=O)[C@H](CO)NC1=O)C(=O)N[C@@H](CC(C)C)C(=O)N[C@@H](CCC(=O)O)C(=O)N1CCC[C@H]1C(=O)N3)NC(=O)[C@H](CCCCN)NC(=O)CNC(=O)[C@H](CC(N)=O)NC(=O)[C@H](CCSC)NC2=O [F25Nal] (H-GVIINVKCKISRQCLEPCKKAGMR[1Nal]GKCMNGKCHCTPK-OH; disulfide 8-28, 14-33, 18-35) | 28.6 | 51.8
3 | CC[C@H](C)[C@@H]1NC(=O)[C@H](CCCCN)NC(=O)[C@@H](NC(=O)[C@H](CCCCN)NC(=O)[C@@H](NC(=O)[C@H](CC(N)=O)NC(=O)[C@@H](NC(=O)[C@@H](NC(=O)[C@@H](NC(=O)CN)C(C)C)[C@@H](C)CC)[C@@H](C)CC)C(C)C)CSSC[C@@H]2NC(=O)[C@H](CCCCN)NC(=O)CNC(=O)[C@H](Cc3ccccc3)NC(=O)[C@H](CCCNC(=N)N)NC(=O)[C@H](CCSC)NC(=O)CNC(=O)[C@H](C)NC(=O)[C@H](CCCCN)NC(=O)[C@H](CCCCN)NC(=O)[C@@H]3CSSC[C@@H](C(=O)N[C@H](C(=O)N4CCC[C@H]4C(=O)N[C@@H](CCCCN)C(=O)O)[C@@H](C)O)NC(=O)[C@H](Cc4c[nH]cn4)NC(=O)[C@H](CSSC[C@H](NC(=O)[C@H](CCC(N)=O)NC(=O)[C@H](CCCNC(=N)N)NC(=O)[C@H](CO)NC1=O)C(=O)N[C@@H](CC(C)C)C(=O)N[C@@H](CCC(=O)O)C(=O)N1CCC[C@H]1C(=O)N3)NC(=O)[C@H](CCC(=O)O)NC(=O)CNC(=O)[C@H](CC(N)=O)NC(=O)[C@H](CCSC)NC2=O [K32E] (H-GVIINVKCKISRQCLEPCKKAGMRFGKCMNGECHCTPK-OH; disulfide 8-28, 14-33, 18-35) | 15.6 | 17.3
4 | CC[C@H](C)[C@@H]1NC(=O)[C@H](CCCCN)NC(=O)[C@@H](NC(=O)[C@H](CCCCN)NC(=O)[C@@H](NC(=O)[C@H](CC(N)=O)NC(=O)[C@@H](NC(=O)[C@@H](NC(=O)[C@@H](NC(=O)CN)C(C)C)[C@@H](C)CC)[C@@H](C)CC)C(C)C)CSSC[C@@H]2NC(=O)[C@H](CCCCN)NC(=O)CNC(=O)[C@H](Cc3ccccc3)NC(=O)[C@H](CCCNC(=N)N)NC(=O)[C@H](CCSC)NC(=O)CNC(=O)[C@H](C)NC(=O)[C@H](CCCCN)NC(=O)[C@H](CCCCN)NC(=O)[C@@H]3CSSC[C@@H](C(=O)N[C@H](C(=O)N4CCC[C@H]4C(=O)N[C@@H](CCCCN)C(=O)O)[C@@H](C)O)NC(=O)[C@H](Cc4c[nH]cn4)NC(=O)[C@H](CSSC[C@H](NC(=O)[C@H](CCC(N)=O)NC(=O)[C@H](CCCNC(=N)N)NC(=O)[C@H](CO)NC1=O)C(=O)N[C@@H](CC(C)C)C(=O)N[C@@H](CCCNC(=N)N)C(=O)N1CCC[C@H]1C(=O)N3)NC(=O)[C@H](CCCCN)NC(=O)CNC(=O)[C@H](CC(N)=O)NC(=O)[C@H](CCSC)NC2=O [E16R] (H-GVIINVKCKISRQCLRPCKKAGMRFGKCMNGKCHCTPK-OH; disulfide 8-28, 14-33, 18-35) | 10.4 | < 1.52
5 | CC[C@H](C)[C@@H]1NC(=O)[C@H](CCCCN)NC(=O)[C@@H](NC(=O)[C@H](CCCCN)NC(=O)[C@@H](NC(=O)[C@H](Cc2cccc3ccccc23)NC(=O)[C@@H](NC(=O)[C@@H](NC(=O)[C@@H](NC(=O)CN)C(C)C)[C@@H](C)CC)[C@@H](C)CC)C(C)C)CSSC[C@@H]2NC(=O)[C@H](CCCCN)NC(=O)CNC(=O)[C@H](Cc3ccccc3)NC(=O)[C@H](CCCNC(=N)N)NC(=O)[C@H](CCSC)NC(=O)CNC(=O)[C@H](C)NC(=O)[C@H](CCCCN)NC(=O)[C@H](CCCCN)NC(=O)[C@@H]3CSSC[C@@H](C(=O)N[C@H](C(=O)N4CCC[C@H]4C(=O)N[C@@H](CCCCN)C(=O)O)[C@@H](C)O)NC(=O)[C@H](Cc4c[nH]cn4)NC(=O)[C@H](CSSC[C@H](NC(=O)[C@H](CCC(N)=O)NC(=O)[C@H](CCCNC(=N)N)NC(=O)[C@H](CO)NC1=O)C(=O)N[C@@H](CC(C)C)C(=O)N[C@@H](CCC(=O)O)C(=O)N1CCC[C@H]1C(=O)N3)NC(=O)[C@H](CCCCN)NC(=O)CNC(=O)[C@H](CC(N)=O)NC(=O)[C@H](CCSC)NC2=O [N5Nal] (H-GVII[1Nal]VKCKISRQCLEPCKKAGMRFGKCMNGKCHCTPK-OH; disulfide 8-28, 14-33, 18-35) | 21.8 | < 1.52
6 | CC[C@H](C)[C@@H]1NC(=O)[C@H](CCCCN)NC(=O)[C@@H](NC(=O)[C@H](CCCCN)NC(=O)[C@@H](NC(=O)[C@H](CC(N)=O)NC(=O)[C@@H](NC(=O)[C@@H](NC(=O)[C@@H](NC(=O)CN)C(C)C)[C@@H](C)CC)[C@@H](C)CC)C(C)C)CSSC[C@@H]2NC(=O)[C@H](CCCCN)NC(=O)CNC(=O)[C@H](Cc3ccccc3)NC(=O)[C@H](CCCNC(=N)N)NC(=O)[C@H](CCSC)NC(=O)CNC(=O)[C@H](C)NC(=O)[C@H](CCCCN)NC(=O)[C@H](CCCCN)NC(=O)[C@@H]3CSSC[C@@H](C(=O)N[C@H](C(=O)N4CCC[C@H]4C(=O)N[C@@H](CCCCN)C(=O)O)[C@@H](C)O)NC(=O)[C@H](Cc4c[nH]cn4)NC(=O)[C@H](CSSC[C@H](NC(=O)[C@H](CCC(N)=O)NC(=O)[C@H](CCCNC(=N)N)NC(=O)[C@H](CO)NC1=O)C(=O)N[C@@H](CC(C)C)C(=O)N[C@@H](Cc1cccc4ccccc14)C(=O)N1CCC[C@H]1C(=O)N3)NC(=O)[C@H](CCCCN)NC(=O)CNC(=O)[C@H](CC(N)=O)NC(=O)[C@H](CCSC)NC2=O [E16Nal] (H-GVIINVKCKISRQCL[1Nal]PCKKAGMRFGKCMNGKCHCTPK-OH; disulfide 8-28, 14-33, 18-35) | 9.58 | < 1.52
7 | CC[C@H](C)[C@@H]1NC(=O)[C@H](CCCCN)NC(=O)[C@@H](NC(=O)[C@H](CCCCN)NC(=O)[C@@H](NC(=O)[C@H](CC(N)=O)NC(=O)[C@@H](NC(=O)[C@@H](NC(=O)[C@@H](NC(=O)CN)C(C)C)[C@@H](C)CC)[C@@H](C)CC)C(C)C)CSSC[C@@H]2NC(=O)[C@H](CCCCN)NC(=O)CNC(=O)[C@H](Cc3ccccc3)NC(=O)[C@H](CCCNC(=N)N)NC(=O)[C@H](CCCNC(=N)N)NC(=O)CNC(=O)[C@H](C)NC(=O)[C@H](CCCCN)NC(=O)[C@H](CCCCN)NC(=O)[C@@H]3CSSC[C@@H](C(=O)N[C@H](C(=O)N4CCC[C@H]4C(=O)N[C@@H](CCCCN)C(=O)O)[C@@H](C)O)NC(=O)[C@H](Cc4c[nH]cn4)NC(=O)[C@H](CSSC[C@H](NC(=O)[C@H](CCC(N)=O)NC(=O)[C@H](CCCNC(=N)N)NC(=O)[C@H](CO)NC1=O)C(=O)N[C@@H](CC(C)C)C(=O)N[C@@H](CCC(=O)O)C(=O)N1CCC[C@H]1C(=O)N3)NC(=O)[C@H](CCCCN)NC(=O)CNC(=O)[C@H](CC(N)=O)NC(=O)[C@H](CCSC)NC2=O [M23R] (H-GVIINVKCKISRQCLEPCKKAGRRFGKCMNGKCHCTPK-OH; disulfide 8-28, 14-33, 18-35) | 12.3 | 2.01
8 | CC[C@H](C)[C@@H]1NC(=O)[C@H](CCCCN)NC(=O)[C@@H](NC(=O)[C@H](CCCCN)NC(=O)[C@@H](NC(=O)[C@H](CC(N)=O)NC(=O)[C@@H](NC(=O)[C@@H](NC(=O)[C@@H](NC(=O)CN)C(C)C)[C@@H](C)CC)[C@@H](C)CC)C(C)C)CSSC[C@@H]2NC(=O)[C@H](CCCCN)NC(=O)CNC(=O)[C@H](Cc3ccccc3)NC(=O)[C@H](CCCNC(=N)N)NC(=O)[C@H](CCSC)NC(=O)CNC(=O)[C@H](C)NC(=O)[C@H](C)NC(=O)[C@H](CCCCN)NC(=O)[C@@H]3CSSC[C@@H](C(=O)N[C@H](C(=O)N4CCC[C@H]4C(=O)N[C@@H](CCCCN)C(=O)O)[C@@H](C)O)NC(=O)[C@H](Cc4c[nH]cn4)NC(=O)[C@H](CSSC[C@H](NC(=O)[C@H](CCC(N)=O)NC(=O)[C@H](CCCNC(=N)N)NC(=O)[C@H](CO)NC1=O)C(=O)N[C@@H](CC(C)C)C(=O)N[C@@H](CCC(=O)O)C(=O)N1CCC[C@H]1C(=O)N3)NC(=O)[C@H](CCCCN)NC(=O)CNC(=O)[C@H](CC(N)=O)NC(=O)[C@H](CCSC)NC2=O [K20A] (H-GVIINVKCKISRQCLEPCKAAGMRFGKCMNGKCHCTPK-OH; disulfide 8-28, 14-33, 18-35) | 1040 | 185
